Experiment [1] can be described thus: cAMP pathway inhibition in counterscreen cell line – TR-FRET cAMP detection, counter-screen for MC4R biased antagonist project, dose response (AID 602305).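 Further: U2OS cells stimulated with forskolin near its EC80 as the cAMP inducer; potency is for inhibition of forskolin-stimulated cAMP signaling.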 Type of experiment: functional, cell-based. A general note: The purpose of a counterscreen is to sort out artefacts and off-target activity.
Another experiment has as its target Melanocortin receptor 4 (Homo sapiens, UniProt P32245). In words: inhibitors of MC4R cAMP signaling – cell-based, TR-FRET, biased antagonists, dose response (AID 602298).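 Further: antagonist potency against agonist-stimulated cAMP production.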 Type of experiment: functional. On the technique in general: In TR-FRET formats the signal depends on donor and acceptor labels being close together.
Experiment [2] addresses Photoreceptor-specific nuclear receptor (Homo sapiens, UniProt Q9Y5X4). Type of experiment: functional, cell-based.
A short description of experiment [3]: reduction of Shn3 3'UTR-driven luciferase in osteoblasts – cell-based, Clone20 osteoblasts, firefly luciferase, cherry-picked, dose response (AID 624132).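 Further: firefly luciferase luminescence from reporter carrying the Shn3 3'UTR in osteoblasts.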 Type of experiment: functional.
The nature of experiment [4]: non-specific 3'UTR reporter inhibition in Clone20-Shn3RL – cell-based, Renilla luciferase, cherry-picked, counter-screen for Shn3 inhibitor project, dose response (AID 624133). In kind it is functional.
The target in the next experiment is Beta-galactosidase (Escherichia coli, UniProt Q8VNN2). In words: detection-enzyme interference by beta-gal modulators – biochemical, E. coli enzyme, set 3, artefact control for CCR6 antagonist project, dose response (AID 504712). Type of experiment: functional.
A short description of experiment [5]: loss of viability in HepG2 cells – cell-based, CellTiter-Glo, cherry-picked, cytotoxicity control for Shn3 inhibitor project, dose response (AID 624134). Type of experiment: functional. (In general: ATP-based viability assays read luminescence as a measure of living cells.)
The nature of experiment [6]: reduced cellular PGC1a acetyl-lysine signal – cell-based, cherry-picked samples, dose response (AID 720514).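 Further: potency may reflect raised or lowered acetylation signal.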 Type of experiment: functional.
Experiment [7] has as its target T1, Tyrosine-protein phosphatase non-receptor type 7 (Homo sapiens, UniProt P35236).
T1 sequence (P35236 whole entry): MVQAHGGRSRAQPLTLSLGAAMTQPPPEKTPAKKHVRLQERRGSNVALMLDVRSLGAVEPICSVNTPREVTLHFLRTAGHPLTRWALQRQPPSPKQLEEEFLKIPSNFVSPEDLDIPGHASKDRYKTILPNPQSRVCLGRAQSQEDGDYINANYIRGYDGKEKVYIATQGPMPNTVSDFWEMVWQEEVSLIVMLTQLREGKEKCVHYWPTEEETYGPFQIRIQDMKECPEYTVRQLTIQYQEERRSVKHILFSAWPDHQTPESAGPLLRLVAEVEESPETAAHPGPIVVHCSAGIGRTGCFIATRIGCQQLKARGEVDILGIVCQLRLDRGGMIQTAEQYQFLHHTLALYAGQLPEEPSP
In words: redox-active compounds inhibiting HePTP phosphatase – biochemical, fluorescence, mechanism study (AID 2068). Type of experiment: functional.

Experiment [8] deals with G-protein coupled receptor 55 (Homo sapiens, UniProt Q9Y2T6). In words: selective activators of receptor GPR55 – imaging, U2OS cells, beta-arrestin-GFP redistribution, primary screen (AID 1961). Type of experiment: functional.
Experiment [9] has as its target DNA dC->dU-editing enzyme APOBEC-3G (Homo sapiens, UniProt Q9HC16). In words: Dose Response confirmation of small molecule APOBEC3G DNA Deaminase Inhibitors via a fluorescence-based single-stranded DNA deaminase assay. [Related pubchem assays (depositor defined):AID493012, AID493028]. In kind it is functional.
For experiment [10], the target named is DNA dC->dU-editing enzyme APOBEC-3A (Homo sapiens, UniProt P31941). In words: A3A deaminase inhibition for selectivity – biochemical, dose response (AID 504722). Type of experiment: functional.
The target in the next experiment is Hexokinase (Trypanosoma brucei, UniProt Q38C41). In words: Confirmation assay for inhibitors of Trypanosoma brucei hexokinase 1-Analogue-first series. [Related pubchem assays (depositor defined):AID1430, AID1632, AID2516, AID2560, AID2579, AID2600, AID449725, AID492951]. Type of experiment: functional.

Calls of active or inactive are those of the source.

Chain of Hexokinase (Q38C41 whole entry): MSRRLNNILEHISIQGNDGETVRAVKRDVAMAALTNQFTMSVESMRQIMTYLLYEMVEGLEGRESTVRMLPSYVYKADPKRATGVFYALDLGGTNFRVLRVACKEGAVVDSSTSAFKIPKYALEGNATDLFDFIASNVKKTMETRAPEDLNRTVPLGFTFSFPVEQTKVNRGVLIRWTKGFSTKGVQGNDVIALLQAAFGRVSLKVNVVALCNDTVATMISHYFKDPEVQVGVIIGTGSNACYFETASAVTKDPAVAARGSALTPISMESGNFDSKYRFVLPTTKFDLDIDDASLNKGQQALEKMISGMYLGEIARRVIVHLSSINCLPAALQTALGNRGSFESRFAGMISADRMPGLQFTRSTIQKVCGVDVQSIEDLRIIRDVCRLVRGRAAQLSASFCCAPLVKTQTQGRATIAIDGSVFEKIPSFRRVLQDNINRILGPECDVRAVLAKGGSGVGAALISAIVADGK
Chain of Melanocortin receptor 4 (P32245 whole entry): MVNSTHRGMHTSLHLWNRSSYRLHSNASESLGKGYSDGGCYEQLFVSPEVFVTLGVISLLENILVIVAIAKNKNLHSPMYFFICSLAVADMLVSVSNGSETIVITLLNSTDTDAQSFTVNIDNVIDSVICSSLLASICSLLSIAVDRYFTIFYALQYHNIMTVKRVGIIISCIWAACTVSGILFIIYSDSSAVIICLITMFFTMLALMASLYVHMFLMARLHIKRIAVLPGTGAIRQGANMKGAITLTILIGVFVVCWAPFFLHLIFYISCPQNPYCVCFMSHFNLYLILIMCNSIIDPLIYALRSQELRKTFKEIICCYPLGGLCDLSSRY
Chain of Beta-galactosidase (Q8VNN2 whole entry): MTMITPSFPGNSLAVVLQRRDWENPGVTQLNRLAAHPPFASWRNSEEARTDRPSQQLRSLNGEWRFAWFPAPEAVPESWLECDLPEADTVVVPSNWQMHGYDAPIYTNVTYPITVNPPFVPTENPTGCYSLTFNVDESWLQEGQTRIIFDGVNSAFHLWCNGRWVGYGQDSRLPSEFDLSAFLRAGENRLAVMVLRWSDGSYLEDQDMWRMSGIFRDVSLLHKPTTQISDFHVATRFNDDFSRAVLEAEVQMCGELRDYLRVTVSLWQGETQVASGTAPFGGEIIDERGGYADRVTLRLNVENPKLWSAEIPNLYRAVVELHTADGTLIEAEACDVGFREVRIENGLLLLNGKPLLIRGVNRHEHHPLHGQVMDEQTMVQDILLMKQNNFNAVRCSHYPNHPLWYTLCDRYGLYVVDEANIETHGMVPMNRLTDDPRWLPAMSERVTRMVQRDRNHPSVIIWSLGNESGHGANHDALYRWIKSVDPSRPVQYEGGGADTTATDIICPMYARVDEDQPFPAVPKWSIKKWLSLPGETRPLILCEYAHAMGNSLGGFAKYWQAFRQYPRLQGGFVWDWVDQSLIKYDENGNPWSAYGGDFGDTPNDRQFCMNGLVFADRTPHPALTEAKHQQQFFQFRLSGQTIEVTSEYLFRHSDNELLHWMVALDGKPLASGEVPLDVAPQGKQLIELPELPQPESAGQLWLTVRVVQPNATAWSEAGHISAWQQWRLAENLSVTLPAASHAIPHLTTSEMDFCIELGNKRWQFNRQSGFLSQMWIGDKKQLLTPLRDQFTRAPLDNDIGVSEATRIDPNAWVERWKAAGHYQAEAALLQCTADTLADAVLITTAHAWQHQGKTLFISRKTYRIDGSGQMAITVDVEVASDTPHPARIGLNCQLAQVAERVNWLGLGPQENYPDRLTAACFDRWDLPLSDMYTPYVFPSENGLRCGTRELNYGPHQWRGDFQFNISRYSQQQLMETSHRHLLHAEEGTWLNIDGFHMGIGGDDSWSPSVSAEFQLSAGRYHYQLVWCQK
Chain of Photoreceptor-specific nuclear receptor (Q9Y5X4 whole entry): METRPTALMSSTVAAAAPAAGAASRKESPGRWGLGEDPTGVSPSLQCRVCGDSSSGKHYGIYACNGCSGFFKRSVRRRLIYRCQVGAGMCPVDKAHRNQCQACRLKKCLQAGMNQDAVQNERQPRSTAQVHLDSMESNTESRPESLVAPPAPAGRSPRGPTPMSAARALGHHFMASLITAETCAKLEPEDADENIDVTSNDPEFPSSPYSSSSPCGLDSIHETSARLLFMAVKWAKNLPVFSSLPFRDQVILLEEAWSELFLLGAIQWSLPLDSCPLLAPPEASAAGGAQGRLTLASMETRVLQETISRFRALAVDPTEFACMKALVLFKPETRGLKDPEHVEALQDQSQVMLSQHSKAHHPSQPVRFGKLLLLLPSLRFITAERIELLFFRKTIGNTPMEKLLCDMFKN
Chain of G-protein coupled receptor 55 (Q9Y2T6 whole entry): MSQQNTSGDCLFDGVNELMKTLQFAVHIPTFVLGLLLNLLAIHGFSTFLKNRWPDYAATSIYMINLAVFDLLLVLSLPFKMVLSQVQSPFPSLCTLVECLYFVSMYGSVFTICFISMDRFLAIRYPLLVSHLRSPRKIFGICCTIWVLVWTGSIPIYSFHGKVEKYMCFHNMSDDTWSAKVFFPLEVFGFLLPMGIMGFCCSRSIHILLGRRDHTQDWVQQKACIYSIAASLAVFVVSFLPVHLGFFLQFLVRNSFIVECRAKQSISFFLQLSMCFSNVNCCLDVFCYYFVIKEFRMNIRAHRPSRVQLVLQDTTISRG
Chain of DNA dC->dU-editing enzyme APOBEC-3G (Q9HC16 whole entry): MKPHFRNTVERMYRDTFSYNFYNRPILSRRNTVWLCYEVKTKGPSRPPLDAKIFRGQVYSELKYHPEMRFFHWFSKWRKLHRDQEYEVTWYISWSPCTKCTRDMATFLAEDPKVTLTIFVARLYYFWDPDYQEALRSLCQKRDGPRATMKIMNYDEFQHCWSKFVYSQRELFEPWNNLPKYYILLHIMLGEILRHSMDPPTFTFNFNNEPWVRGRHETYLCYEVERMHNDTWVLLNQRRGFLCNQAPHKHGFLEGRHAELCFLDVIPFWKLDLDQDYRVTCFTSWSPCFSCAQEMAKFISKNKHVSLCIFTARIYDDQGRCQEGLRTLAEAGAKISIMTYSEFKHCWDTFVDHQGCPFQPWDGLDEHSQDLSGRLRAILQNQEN
Chain of DNA dC->dU-editing enzyme APOBEC-3A (P31941 whole entry): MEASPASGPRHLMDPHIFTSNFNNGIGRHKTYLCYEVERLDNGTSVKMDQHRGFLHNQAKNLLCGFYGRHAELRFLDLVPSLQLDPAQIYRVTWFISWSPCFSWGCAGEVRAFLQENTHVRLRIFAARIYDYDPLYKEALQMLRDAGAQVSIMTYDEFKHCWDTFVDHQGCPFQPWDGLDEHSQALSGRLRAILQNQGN

As for `O=S(=O)(/C(=C\c1ccc(C(F)(F)F)cc1)c1nc2ccccc2[nH]1)c1ccccc1`, the IC50 (in general, the midpoint of a concentration-inhibition curve) in experiment [1] is > 64.6 µM (inactive); on Melanocortin receptor 4, 9.39 µM (active); in [2], 4.42 µM (active); at Beta-galactosidase it was > 66.6 µM (inactive). The AC50 (in general, the midpoint of the concentration-response curve, whichever way the signal moves) in experiment [3] is 1.85 µM (active); in experiment [4] it was < 0.5 µM (active); in experiment [5], 6.49 µM (active); in [6], 3.11 µM (active).

On to `CCN(CC)C(=O)C1CCCN(C(=O)Nc2ccc3nc(-c4ccco4)c(-c4ccco4)nc3c2)C1` (stereo not drawn), for which the IC50 in [7] was 2.66 µM (active).

Regarding `CCCN(CCC)Cc1c(C(=O)N/N=C/c2c[nH]c3ccccc23)nnn1-c1nonc1N`, the EC50 (usually the concentration needed to bring the measured effect to its halfway point) in experiment [8] is 0.905 µM (active).

As to `CC(/C=N/n1c(S)nnc1-c1cc(C)[nH]n1)=C\c1ccco1`, the IC50 in [9] was 2.47 µM (active); in experiment [10], > 100 µM (inactive).

As to `COc1ccc(C(=O)NCC(=O)O)cc1`, the IC50 at Hexokinase is > 25 µM (inactive).

Source of the values: ChEMBL document CHEMBL1201862, “PubChem BioAssay data set” (2004).
